Results from US10487089B2, “Imaging agents and methods of identifying same” (The Trustees of the University of Pennsylvania, priority 2014, dated 2019).
Entries after “also recorded” stand apart in the source; their conditions may differ. Like-named read-outs stand apart in the source and are kept apart here. Each block holds one compound with its values, some of them ahead of it.

Legend:
HeLa cells [1] = test: One-hundred-time-point timelapse microscopy (photostability / resistance to photobleaching); type: cell-based; conditions: for loss of intensity over 100 scans: 100 pulses of 300 ms, maximum intensity of the image tracked; for decrease in intensity after 100 scans: 300 ms/scan, HeLa cells; for photostability compared with commercial dyes: vs Lysotracker Red / Mitotracker Red, 100 laser pulses of 300 ms
Protocol: One-hundred-time-point microscopy experiments were performed to evaluate photostability and/or resistance to photobleaching in comparison with the commercial dyes of lysotracker and mitotracker. […] For these experiments, each sample was pulsed 100 times for 300 ms and the maximum intensity of the image was tracked over time. […] Mitotracker was more robust than lysotracker, losing only 34% of its intensity over the 100 scans, while compound 3 lost only ˜13%. The most robust dye discovered thus far is monomethylated-3 (Me-3), which lost only ˜5% of its intensity over 100 scans.
This was determined via one-hundred-time-point timelapse microscopy experiments in which the […] intensity of the image was monitored over 100 laser pulses of 300 ms (FIG. 42).
To investigate photostability of 2 and 3, timelapse microscopy experiments were carried out.

lysosomes of HeLa cells = test: Co-staining with lysotracker red, Pearson colocalization correlation; type: cell-based
Protocol: (§1) Pearson correlations were done after co-staining with mitotracker or lysotracker to evaluate specificity.
(§2) Confirmation of the supposed lysosome and mitochondria staining was achieved by doing co-staining experiments with Lysotacker Red™ and Mitortracker Red™, respectively. A Pearson colocalization correlation (PCC) of 0.75 was determined from a costaining experiments in which HeLa cells were incubated with E/Z-2 and Lysotracker. The imperfect correlation is due to higher specificity for a subset of vesicles stained by the Lysotracker.

HeLa cells [2] = test: Confocal microscopy of stained live HeLa cells (subcellular localization, cell permeability); conditions: for staining specificity / subcellular localization: confocal microscopy
Text: (§3) Confocal microscopy was done on a Yokogawa spinning disk inverted microscope with a 100× lens. Each batch of stained cells was imaged by exciting with a 488 nm laser while observing at 503-545 nm (the green overlay images), exciting with a 561 nm laser while observing at 583-650 nm (the red overlay images), and by DIC (the grey images) (FIG. 8).
(§4) A 444 nm excitation was required to image with compounds 2 and 3 (FIG. 18).

HeLa cells [3] = test: Toxicity to HeLa cells on a 24 h timescale (live-cell imaging)
[4] = tested on: mitochondria of HeLa cells; test: Co-staining with mitotracker red, Pearson colocalization correlation; type: cell-based
Protocol: as §1, §2

HeLa cells [5] = tested on: HeLa cells
Text: as §3, §4

HeLa cells [6] = tested on: HeLa cells; remark: listed apart in the source
[7] = in ethanol; cited from earlier work
[8] = Variable temperature 1H-NMR of E/Z interconversion; type: physicochemical; conditions: DMF-d7, coalescence at 45° C.
Text: A rapid and efficient synthesis of the desired photoactivatable probe starting with commercially available 2-cyanopyridine (FIG. 52). 2-cyanopyridine was elaborated to thioketone A using methods similar to those previously reported (Rarig et al., 2013, J. Am. Chem. Soc. 135: 9213-9219, which is incorporated by reference in its entirety for all purposes). Homocoupling of A, using copper powder in toluene under refluxing conditions, yielded 1,1′-diazaxanthilidene 10 as an interconverting mixture of E and Z isomers in 84% yield (FIG. 43). Methylation of 10 with dimethyl sulfate afforded the desired monomethylated product 11-E/11-Z in 96% yield. The overall yield of the probe from commercial starting materials after 6 steps was 24% (FIGS. 43 and 52). Single crystals of 10-E and 11-Z were obtained by slow evaporation from chloroform:methanol (1:1) and water, respectively. […] Variable temperature ^1H-NMR (J. Sandström, 1982, Dynamic NMR spectroscopy, Academic Press, London, New York) of 10-E/10-Z in deuterated N,N-dimethylformamide confirmed the dynamic interconversion of the E and Z isomers at room temperature.

[9] = Photophysical properties (absorption, emission, extinction coefficient, quantum yield); type: physicochemical
Text: n-Butyllithium in hexanes was purchased from Acros and titrated with diphenylacetic acid, which was recrystallized from toluene. All other reagents were purchased from Sigma Aldrich and used without further purification. Solvents were purchased from either Sigma Aldrich or Fisher Scientific. Anhydrous solvents were purchased from Fisher Scientific and dried by passing through an alumina column of a solvent purification system. Silica gel (230-400 mesh) used for column chromatography was purchased from Silicycle. Thin layer chromatography plates (250 μm thickness) were purchased from Sorbent Technologies. Revered-phase column chromatography was done using a RediSep Rf Gold C18 column on a Teledyne Isco CombiFlash Rf system. High-performance liquid chromatography (HPLC) was performed on a Jasco HPLC system using a Phenomenex column (Luna 5u C18(2) 100A; 250×4.60 mm, 5 micron). UV absorption spectra were obtained on a Jasco V-650 spectrophotometer using a 1 cm path length quartz cuvette. Fluorescence emission spectra were taken on a Horiba Jobin-Yvon FluoroLog using a 1 cm path length fluorescence quartz cuvette. ^1H-NMR and ^13C-NMR were recorded on either a Bruker DMX 500 (500 MHz) or a Bruker AVII 500 (500 MHz). High-resolution mass spectrometry was performed using a Waters LCT Premier XE Mass Spectrometer (model KE 332). […] was performed using a Bruker APEX2-DUO CCD X-ray Diffractometer. Photoreactions were carried out in a Rayonet Photochemical Reactor (model RPR-100). Quantum yield was determined by serial dilution method using coumarine 153 (in ethanol, Φ=0.38) and fluorescein (in NaOH 0.1 M, Φ=0.95) as standards (Yvon, A guide to recording Fluorescence Quantum Yields, http://www.horiba.com/fileadmin/uploads/Scientific/Documents/Fluorescence/quantumyie ldstrad.pdf, accessed Jul. 13, 2014; Brouwer, 2011, Pure Appl. Chem. 83: 2213-2228)

Text for Solubility (DMSO, water): Water solubility would then be evaluated first by simply doing an aqueous extraction.

loss of intensity over 100 scans (HeLa cells [1]): ~30%
SMILES: C[n+]1ccc2c(c1)Oc1ccccc1/C2=C1/c2ccccc2Oc2cnccc21 [Me-E-1, (E)-2-methyl-[5,5′-bichromeno[2,3-c]pyridinylidene]-2-ium]
Pearson correlation with lysotracker red (lysosomes of HeLa cells): 0.75 | staining specificity / subcellular localization (HeLa cells [2]): lysosome-specific stain | staining specificity / subcellular localization (HeLa cells [2]; listed as Me-1): lysosome-specific stain | staining specificity / subcellular localization (HeLa cells [2]; listed as monomethylated 3,3′-DAXAZ): good lysosomal stain

loss of intensity over 100 scans (HeLa cells [1]): 34%
SMILES: ClCc1ccc(C2=c3cc4c5c(c3Oc3c2cc2c6c3CCCN6CCC2)CCC[N+]=5CCC4)cc1.[Cl-] [Mitotracker, reference compound]

loss of intensity over 100 scans (HeLa cells [1]): 80%
SMILES: CN(C)CCNC(=O)CCc1ccc2n1[B-](F)(F)[N+]1=C(c3ccc[nH]3)C=CC1=C2 [lysotracker, reference compound]

decrease in intensity after 100 scans (HeLa cells [1]): only a slight decrease in intensity | photostability compared with commercial dyes (HeLa cells [1]): superior
SMILES: c1ccc2c(c1)oc1cncc3c4cccc5oc6cnccc6c(c54)c2c13 [Compound 2, chromeno[2,3,4-de]pyrido[3′,4′:2,3]chromeno[4,5-gh]isoquinoline;2,9-diaza-benzo[1,2,3-kl:6,5,4-k′l′]dixanthene]
toxicity to HeLa cells (HeLa cells [3]): non-toxic | cell permeability (HeLa cells [2]): cell permeable; also recorded: cell-permeable | staining specificity / subcellular localization (HeLa cells [2]): staining mitochondria; also recorded: selectively stain mitochondria rather than the nucleus; also recorded: mitochondria-specific dyes; also recorded: localize primarily in the mitochondria; also recorded: stains mitochondria and additional structures | Pearson correlation with mitotracker red [4]: 0.75

SMILES: C[n+]1ccc2c(c1)oc1cccc3c4cccc5oc6c[n+](C)ccc6c(c54)c2c13 [DiMe-3, 9,14-dimethyl-9,14-diaza-benzo[1,2,3-kl:6,5,4-k′l′]dixanthene]
cell permeability (HeLa cells [5]): cell permeable | toxicity to HeLa cells (HeLa cells [6]): non-toxic | staining specificity / subcellular localization (HeLa cells [2]): staining lysosomes; also recorded: specific for punctuate organelles; also recorded: lysosomal subcellular specificity

SMILES: O=c1cc(C(F)(F)F)c2cc3c4c(c2o1)CCCN4CCC3 [coumarine 153]
quantum yield Φ of standard [7]: 0.38

SMILES: C[n+]1ccc2c(c1)oc1cccc3c4cccc5oc6cnccc6c(c54)c2c13 [Me-3, 9-Me-9,14-diaza-benzo[1,2,3-kl:6,5,4-k′l′]dixanthene]
loss of intensity over 100 scans (HeLa cells [1]): ~5% | Pearson correlation with lysotracker red (lysosomes of HeLa cells): 0.25

photostability compared with commercial dyes (HeLa cells [1]): superior | water solubility (Solubility (DMSO, water)): water-solubility | cell permeability (HeLa cells [2]): cell permeable
SMILES: C[n+]1ccc2c(c1)Oc1ccccc1/C2=C1\c2ccccc2Oc2c[n+](C)ccc21 [DiMe-Z-1, (Z)-N, N′-dimethyl-3,3′-diazaxanthylidene]
toxicity to HeLa cells (HeLa cells [3]): non-toxic | staining specificity / subcellular localization (HeLa cells [2]): specific for punctuate organelles; also recorded: lysosomal subcellular specificity

water solubility (Solubility (DMSO, water)): water-solubility | cell permeability (HeLa cells [2]): cell permeable
SMILES: C[n+]1ccc2c(c1)oc1cccc3c4c[n+](C)cc5oc6ccccc6c(c54)c2c13 [DiMe-2, 2,9-dimethylchromeno[2,3,4-de]pyrido[3′,4′:2,3]chromeno[4,5-gh]isoquinoline-2,9-diium]
toxicity to HeLa cells (HeLa cells [3]): non-toxic | staining specificity / subcellular localization (HeLa cells [2]): specific for punctuate organelles; also recorded: lysosomal subcellular specificity

activation energy ΔG‡ of E/Z interconversion [8]: 15.7 kcal/mol
SMILES: c1ccc2c(c1)Oc1cccnc1/C2=C1\c2ccccc2Oc2cccnc21 (racemic) [10-E/10-Z, 1,1′-diazaxanthilidene]

SMILES: C[n+]1ccc2c(c1)Oc1ccccc1/C2=C1/c2ccccc2Oc2c[n+](C)ccc21 [E/Z-6]
staining specificity / subcellular localization (HeLa cells [2]): stains lysosomes

solubility in DMSO (Solubility (DMSO, water); DMSO): poor solubility
SMILES: c1ccc2c(c1)Oc1cnccc1/C2=C1\c2ccccc2Oc2cnccc21 (racemic) [E/Z-1, 3,3′-diazaxanthylidene]

photostability compared with commercial dyes (HeLa cells [1]): superior | water solubility (Solubility (DMSO, water)): water-solubility | cell permeability (HeLa cells [2]): cell permeable
SMILES: C[n+]1ccc2c(c1)Oc1ccccc1/C2=C1/c2ccccc2Oc2c[n+](C)ccc21 [DiMe-E-1, (E)-3,3′-dimethyl-[5,5′-bichromeno[2,3-c]pyridinylidene]-3,3′-diium]
toxicity to HeLa cells (HeLa cells [3]): non-toxic | staining specificity / subcellular localization (HeLa cells [2]): specific for punctuate organelles; also recorded: lysosomal subcellular specificity

SMILES: C[n+]1cccc2oc3cccc4c5cccc6oc7cccnc7c(c65)c(c34)c21 [Compound 12]
Stokes shift [9]: 108 nm | Abs λmax ([9]; in water): 504 nm | Em λmax ([9]; in water): 612 nm | extinction coefficient ε ([9]; solvent: water): 11496 M⁻¹ cm⁻¹ | quantum yield Φ ([9]; solvent: water): 0.100

SMILES: c1cc2oc3cnccc3c3c2c(c1)c1cccc2oc4cnccc4c3c21 [Compound 3, 9,14-diaza-benzo[1,2,3-kl:6,5,4-k′l′]dixanthene]
loss of intensity over 100 scans (HeLa cells [1]): ~13% | decrease in intensity after 100 scans (HeLa cells [1]): only a slight decrease in intensity | toxicity to HeLa cells (HeLa cells [6]): non-toxic | Pearson correlation with mitotracker red [4]: 0.75
